These results are taken from EP2881391A1, “Spiroindoline carbocycle derivatives and pharmaceutical compositions thereof” (Bayer Pharma Aktiengesellschaft, priority 2013, dated 2015).

The target in this test is T1, human GnRH receptor (Homo sapiens, UniProt P30968).
T1 construct: line established by Prof; Thomas Gudermann; host or cells: CHO cells
T1 sequence (P30968 1-328): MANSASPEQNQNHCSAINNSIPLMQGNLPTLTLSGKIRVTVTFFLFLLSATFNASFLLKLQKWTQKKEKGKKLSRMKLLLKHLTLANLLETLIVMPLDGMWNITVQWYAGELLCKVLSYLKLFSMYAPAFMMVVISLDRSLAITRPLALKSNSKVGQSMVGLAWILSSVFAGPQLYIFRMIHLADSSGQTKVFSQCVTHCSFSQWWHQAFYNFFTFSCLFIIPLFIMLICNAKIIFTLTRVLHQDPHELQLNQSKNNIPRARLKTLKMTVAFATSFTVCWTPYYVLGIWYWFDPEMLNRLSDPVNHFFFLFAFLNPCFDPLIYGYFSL
The experiment in a line: IP-One HTRF assay (inhibition of GnRH-R activation by buserelin). In kind it is cell-based. Conditions: IP-One HTRF assay with buserelin (at EC80) stimulation; CHO cells stably expressing human GnRH receptor; tested 20 µM to 1 nM; read-out: Potency IC50. In a few lines: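 CHO cells stably expressing human GnRH-R, pre-incubated 20 min at 22°C with compound (10 concentrations, 20 µM to 1 nM, duplicates), then stimulated 1 h at 37°C with buserelin or LHRH at EC50 or EC80 in pH 7.4 buffer with 50 mM LiCl. IP1 read by HTRF 665/620 nm ratio; IC50 by 4-parameter fit.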
A general note: In TR-FRET formats the signal depends on donor and acceptor labels being close together.

A word on the IC50: it is the concentration needed to halve the response being measured. As to `O=C(Nc1cncc(C(F)(F)F)c1)c1ccc2c(c1)C1(CCC(O)(C(F)(F)F)CC1)C(C1CC1)N2S(=O)(=O)c1ccc(F)cc1` (stereo not drawn) [Example 58, 2'-cyclopropyl-1'-[(4-fluorophenyl)sulfonyl]-4-hydroxy-4-(trifluoromethyl)-N-[5-(trifluoromethyl)pyridin-3-yl]-1',2'-dihydrospiro[cyclohexane-1,3'-indole]-5'-carboxamide], the IC50 worked out at 3.12 µM.
Then `CC1N(S(=O)(=O)c2ccc(F)cc2)c2ccc(C(=O)NCc3ccccc3Cl)cc2C12CCC(O)(C(F)(F)F)CC2` (stereo not drawn) [Example 26, N-(2-chlorobenzyl)-1'-[(4-fluorophenyl)sulfonyl]-4-hydroxy-2'-methyl-4-(trifluoromethyl)-1',2'-dihydrospiro[cyclohexane-1,3'-indole]-5'-carboxamide], with 0.432 µM; and `O=C(NCc1ncc(F)cc1Cl)c1ccc2c(c1)C1(CCC(O)(C(F)(F)F)CC1)C(C1CC1)N2S(=O)(=O)c1ccc(F)cc1` (stereo not drawn) [Example 64, N-[(3-chloro-5-fluoropyridin-2-yl)methyl]-2'-cyclopropyl-1'-[(4-fluorophenyl)sulfonyl]-4-hydroxy-4-(trifluoromethyl)-1',2'-dihydrospiro[cyclohexane-1,3'-indole]-5'-carboxamide], with 0.519 µM.
As to `O=C(NCc1ccc(F)cc1Cl)c1ccc2c(c1)C1(CCC(O)(C(F)(F)F)CC1)C(C1CC1)N2S(=O)(=O)c1ccc(F)cc1` (stereo not drawn) [Example 60, N-(2-chloro-4-fluorobenzyl)-2'-cyclopropyl-1'-[(4-fluorophenyl)sulfonyl]-4-hydroxy-4-(trifluoromethyl)-1',2'-dihydrospiro[cyclohexane-1,3'-indole]-5'-carboxamide], the IC50 is 0.432 µM.
Then `O=C(NCc1ncccc1Cl)c1ccc2c(c1)C1(CCC(O)(C(F)(F)F)CC1)C(C1CC1)N2S(=O)(=O)c1ccc(F)cc1` (racemic) [Example 1, N-[(3-chloropyridin-2-yl)methyl]-2'-cyclopropyl-1'-[(4-fluorophenyl)sulfonyl]-4-hydroxy-4-(trifluoromethyl)-1',2'-dihydrospiro[cyclohexane-1,3'-indole]-5'-carboxamide], with 0.354 µM; and `COc1cccc(S(=O)(=O)N2c3ccc(C(=O)Nc4ncco4)cc3C3(CCC(O)(C(F)(F)F)CC3)C2C2CC2)c1` (stereo not drawn) [Example 41, 2'-cyclopropyl-4-hydroxy-1'-[(3-methoxyphenyl)su Ifonyl]-N-(1,3-oxazol-2-yl)-4-(trifluoromethyl)-1',2'-dihydrospiro[cyclohexane-1,3'-indole]-5'-carboxamide], with 1.49 µM.
Then `O=C(O)c1cccc(S(=O)(=O)N2c3ccc(C(=O)NCc4ccccc4Cl)cc3C3(CCCCC3)C2C2CC2)c1` (stereo not drawn) [Example 10, 3-({5'-[(2-chlorobenzyl)carbamoyl]-2'-cyclopropylspiro[cyclohexane-1,3'-indol]-1'(2'H)-yl}sulfonyl)benzoic acid], with 0.805 µM.
Then `COC(=O)c1cccc(NC(=O)c2ccc3c(c2)C2(CCC(O)(C(F)(F)F)CC2)C(C2CC2)N3S(=O)(=O)c2cccc(OC)c2)c1` (stereo not drawn) [Example 31, methyl 3-[({2'-cyclopropyl-4-hydroxy-1'-[(3-methoxyphenyl)su Ifonyl]-4-(trifluoromethyl)-1',2'-dihydrospiro[cyclohexane-1,3'-indol]-5'-yl}carbonyl)amino] benzoate], with 0.669 µM; and `O=C(NCc1ccccc1Cl)c1ccc2c(c1)C1(CCC(O)CC1)C(C1CC1)N2S(=O)(=O)c1ccc(F)cc1` (stereo not drawn) [Example 2, N-(2-chlorobenzyl)-2'-cyclopropyl-1'-[(4-fluorophenyl)sulfonyl]-4-hydroxy-1',2'-dihydrospiro[cyclohexane-1,3'-indole]-5'-carboxamide], with 0.0607 µM.
